Data on 37 compounds can be found in US7423159B2, “Agent for preventing or treating neuropathy” (Takeda Pharmaceutical Company Limited, priority 2002, dated 2008).

As usually defined, the melting point is the temperature of the solid-liquid transition. `CCSCc1ccc(NC(=O)/C=C/c2cnn(C)c2-c2ccc(F)cc2)cc1` [Example 210, (2E)-N-{4-[(Ethylthio)methyl]phenyl}-3-[5-(4-fluorophenyl)-1-methyl-1H-pyrazol-4-yl]acrylamide] yielded a melting point of 157 to 158 °C. `Cn1ncc(/C=C/C(=O)Nc2ccc(CCc3nccs3)cc2)c1-c1ccc(F)cc1` [Example 130, (2E)-3-[5-(4-Fluorophenyl)-1-methyl-1H-pyrazol-4-yl]-N-(4-[2-(1,3-thiazol-2-yl)ethyl]phenyl}acrylamide]: the melting point was 201 to 202 °C. The compound `CCn1nnc(Cc2ccc(NC(=O)/C=C/c3cnn(C)c3-c3ccc(F)cc3)cc2)n1` [Example 104, (2E)-N-{4-[(2-Ethyl-2H-tetrazol-5-yl)methyl]phenyl}-3-[5-(4-fluorophenyl)-1-methyl-1H-pyrazol-4-yl]acrylamide] registered a melting point of 187 to 188 °C. With `CC(=O)c1ccc(NC(=O)/C=C/c2cnn(C)c2-c2ccc(F)cc2)cc1` [Example 165, (2E)-N-(4-Acetylphenyl)-3-[5-(4-fluorophenyl)-1-methyl-1H-pyrazol-4-yl)acrylamide], the melting point lay in the range of 204 to 205 °C.

`COP(=O)(Cc1ccc(NC(=O)/C=C/c2cnn(C)c2-c2ccc(Cl)cc2)cc1)OC` had a melting point of 209 to 210 °C. Compound `Cn1ncc(/C=C/C(=O)Nc2ccc(Cn3ccnn3)cc2)c1-c1ccc(F)cc1` [Example 194, (2E)-3-[5-(4-Fluorophenyl)-1-methyl-1H-pyrazol-4-yl]-N-[4-(1H-1,2,3-triazol-1-ylmethyl)phenyl]acrylamide] returned a melting point of 252 to 253 °C. `COCc1ccc(NC(=O)/C=C/c2cnn(C)c2-c2ccc(F)cc2)cc1` [Example 209, (2E)-3-[5-(4-Fluorophenyl)-1-methyl-1H-pyrazol-4-yl]-N-[4-(methoxymethyl)phenyl]acrylamide]: the melting point is 170 to 171 °C. `Cn1ncc(/C=C/C(=O)Nc2ccc(Cn3cc4ccccc4n3)cc2)c1-c1ccc(F)cc1` [Example 178, (2E)-3-[5-(4-Fluorophenyl)-1-methyl-1H-pyrazol-4-yl]-N-[4-(2H-indazol-2-ylmethyl)phenyl]acrylamide]: the melting point was 231 to 232 °C. To `Cc1nc(Cc2ccc(NC(=O)/C=C/c3cnn(C)c3-c3ccc(F)cc3)cc2)sc1C` [Example 123, (2E)-N-{4-[(4,5-Dimethyl-1,3-thiazol-2-yl)methyl]phenyl}-3-{5-(4-fluorophenyl)-1-methyl-1H-pyrazol-4-yl}acrylamide] belongs 210 to 211 °C; to `Cn1ncc(/C=C/C(=O)Nc2ccc(CNC(=O)c3ccccc3)cc2)c1-c1ccc(F)cc1` [Example 142, N-[4-({(2E)-3-[5-(4-Fluorophenyl)-1-methyl-1H-pyrazol-4-yl]prop-2-enoyl}amino)benzyl]benzamide], 250 to 251 °C; to `CCc1csc(Cc2ccc(NC(=O)/C=C/c3cnn(C)c3-c3ccc(F)cc3)cc2)n1` [Example 125, (2E)-N-{4-[(4-ethyl-1,3-thiazol-2-yl)methyl]phenyl}-3-[5-(4-fluorophenyl)-1-methyl-1H-pyrazol-4-yl]acrylamide], 211 to 212 °C.

Turning to `Cn1ncc(/C=C/C(=O)Nc2ccc(CN3C(=O)CNC3=O)cc2)c1-c1ccc(F)cc1` [Example 157, (2E)-N-{4-[(2,5-Dioxo-1-imidazolidinyl)methyl]phenyl}-3-[5-(4-fluorophenyl)-1-methyl-1H-pyrazol-4-yl]acrylamide], the melting point was 249 to 250 °C.

`Cn1ncc(/C=C/C(=O)Nc2ccc([S+](C)[O-])cc2)c1-c1ccc(F)cc1` (stereo not shown) [Example 217, (2E)-3-[5-(4-Fluorophenyl)-1-methyl-1H-pyrazol-4-yl]-N-[4-(methylsulfinyl)phenyl]acrylamide] registered a melting point of 260 to 261 °C. Compound `Cn1ncc(/C=C/C(=O)Nc2ccc(Cc3n[nH]c(=O)o3)cc2)c1-c1ccc(F)cc1` [Example 86, (2E)-3-[5-(4-Fluorophenyl)-1-methyl-1H-pyrazol-4-yl]-N-{4-[(5-oxo-4,5-dihydro-1,3,4-oxadiazol-2-yl)methyl]phenyl}acrylamide] gave a melting point of 262 to 263 °C. `Cn1ncc(/C=C/C(=O)Nc2ccc(Cc3nc4ccccc4[nH]3)cc2)c1-c1ccc(F)cc1` [Example 108, (2E)-N-[4-(1H-Benzimidazol-2-ylmethyl)phenyl]-3-[5-(4-fluorophenyl)-1-methyl-1H-pyrazol-4-yl]acrylamide] yielded a melting point above 300 °C. Take `Cc1nc2ccccc2n1Cc1ccc(NC(=O)/C=C/c2cnn(C)c2-c2ccc(F)cc2)cc1` [Example 173, (2E)-3-[5-(4-Fluorophenyl)-1-methyl-1H-pyrazol-4-yl]-N-{4-[(2-methyl-1H-benzimidazol-1-yl)methyl]phenyl}acrylamide]: the melting point lay in the range of 263 to 264 °C. Compound `CCOC(=O)Cc1ccc(NC(=O)/C=C/c2cnn(C)c2-c2ccc(F)cc2)cc1` [Example 109, ethyl [4-({(2E)-3-[5-(4-fluorophenyl)-1-methyl-1H-pyrazol-4-yl]prop-2-enoyl}amino)phenyl]acetate] showed a melting point of 177 to 178 °C. The same measure for `CC(=O)NCc1ccc(NC(=O)/C=C/c2cnn(C)c2-c2ccc(F)cc2)cc1` [Example 189, (2E)-N-{4-[(Acetylamino)methyl]phenyl}-3-[5-(4-fluorophenyl)-1-methyl-1H-pyrazol-4-yl]acrylamide]: 233 to 234 °C; for `Cn1ncc(/C=C/C(=O)Nc2ccc(CN)cc2)c1-c1ccc(F)cc1` [Example 137, (2E)-N-[4-(aminomethyl)phenyl]-3-[5-(4-fluorophenyl)-1-methyl-1H-pyrazol-4-yl]acrylamide]: 201 to 202 °C. Compound `COP(=O)(Cc1ccc(NC(=O)/C=C/c2cnn(C)c2-c2ccoc2)cc1)OC` came in with a melting point of 176 to 177 °C. With `CCc1nnc(Cc2ccc(NC(=O)/C=C/c3cnn(C)c3-c3ccc(F)cc3)cc2)o1` [Example 134, (2E)-N-{4-[(5-ethyl-1,3,4-oxadiazol-2-yl)methyl]phenyl}-3-[5-(4-fluorophenyl)-1-methyl-1H-pyrazol-4-yl]acrylamide], the melting point fell in the range of 164 to 165 °C. `COP(=O)(Cc1ccc(NC(=O)/C=C/c2cnn(C)c2-c2cccc3ccccc23)cc1)OC` had a melting point of 207 to 209 °C. For `CCOP(=O)(Cc1ccc(NC(=O)/C=C/c2cnn(Cc3ccccc3)c2-c2ccc(F)cc2)cc1)OCC`, the melting point is 207 to 208 °C. As to `CCOP(=O)(Cc1ccc(NC(=O)/C=C/c2cn[nH]c2-c2ccc(F)cc2)cc1)OCC`, the melting point is 181 to 182 °C.

Compound `CC(=O)N(C)Cc1ccc(NC(=O)/C=C/c2cnn(C)c2-c2ccc(F)cc2)cc1` [Example 117, (2E)-N-(4-{[Acetyl(methyl)amino]methyl}phenyl)-3-[5-(4-fluorophenyl)-1-methyl-1H-pyrazol-4-yl]acrylamide] returned a melting point of 192 to 193 °C. The same measure for `Cn1ncc(/C=C/C(=O)Nc2ccc(S(=O)(=O)c3ccccc3)cc2)c1-c1ccc(F)cc1` [Example 206, (2E)-3-[5-(4-Fluorophenyl)-1-methyl-1H-pyrazol-4-yl]-N-[4-(phenylsulfonyl)phenyl]acrylamide]: 169 to 172 °C; for `Cn1ncc(/C=C/C(=O)Nc2ccc(CC(=O)O)cc2)c1-c1ccc(F)cc1` [Example 133, [4-({(2E)-3-[5-(4-fluorophenyl)-1-methyl-1H-pyrazol-4-yl]prop-2-enoyl]amino}phenyl]acetic acid]: 245 to 246 °C; for `Cn1ncc(/C=C/C(=O)Nc2ccc(Cn3nccn3)cc2)c1-c1ccc(F)cc1` [Example 196, (2E)-3-[5-(4-Fluorophenyl)-1-methyl-1H-pyrazol-4-yl]-N-[4-(2H-1,2,3-triazol-2-ylmethyl)phenyl]acrylamide]: 178 to 179 °C.

Turning to `Cn1ncc(/C=C/C(=O)Nc2ccc(C(=O)c3ccccc3)cc2)c1-c1ccc(F)cc1` [Example 205, (2E)-N-(4-Benzoylphenyl)-3-[5-(4-fluorophenyl)-1-methyl-1H-pyrazol-4-yl]acrylamide], the melting point lay within 110 to 112 °C. `Cn1ncc(/C=C/C(=O)Nc2ccc(Cc3nn(C)c(=O)o3)cc2)c1-c1ccc(F)cc1` [Example 119, (2E)-3-[5-(4-Fluorophenyl)-1-methyl-1H-pyrazol-4-yl]-N-{4-[(4-methyl-5-oxo-4,5-dihydro-1,3,4-oxadiazol-2-yl)methyl]phenyl}acrylamide] registered a melting point of 200 to 201 °C. `Cn1ncc(/C=C/C(=O)Nc2ccc3c(c2)oc(=O)n3C)c1-c1ccc(F)cc1` [Example 122, (2E)-3-[5-(4-Fluorophenyl)-1-methyl-1H-pyrazol-4-yl]-N-(3-methyl-2-oxo-2,3-dihydro-1,3-benzoxazol-6-yl)acrylamide] showed a melting point of 265 to 266 °C.

Compound `Cc1csc(Cc2ccc(NC(=O)/C=C/c3cnn(C)c3-c3ccc(F)cc3)cc2)n1` [Example 127, (2E)-3-[5-(4-Fluorophenyl)-1-methyl-1H-pyrazol-4-yl]-N-(4-[(4-methyl-1,3-thiazol-2-yl)methyl)phenyl]acrylamide] gave a melting point of 217 to 218 °C.

`Cn1ncc(/C=C/C(=O)Nc2ccc(CCO)cc2)c1-c1ccc(F)cc1` [Example 167, (2E)-3-[5-(4-Fluorophenyl)-1-methyl-1H-pyrazol-4-yl]-N-[4-(2-hydroxyethyl)phenyl]acrylamide] had a melting point of 198 to 200 °C. To `COP(=O)(Cc1ccc(NC(=O)CCc2cnn(C)c2-c2ccc(F)cc2)cc1)OC` belongs 142 to 143 °C; to `Cc1nnc(Cc2ccc(NC(=O)/C=C/c3cnn(C)c3-c3ccc(F)cc3)cc2)o1` [Example 136, (2E)-3-[5-(4-fluorophenyl)-1-methyl-1H-pyrazol-4-yl]-N-{4-[(5-methyl-1,3,4-oxadiazol-2-yl)methyl]phenyl}acrylamide], 151 to 152 °C; to `Cc1cn(Cc2ccc(NC(=O)/C=C/c3cnn(C)c3-c3ccc(F)cc3)cc2)cn1` [Example 202, (2E)-3-[5-(4-Fluorophenyl)-1-methyl-1H-pyrazol-4-yl]-N-{4-[(4-methyl-1H-imidazol-1-yl)methyl]phenyl}acrylamide], 202 to 203 °C. Regarding `CCOP(=O)(Cc1ccc(NC(=O)/C=C/c2cnn(C)c2-c2cccnc2)cc1)OCC`, the melting point lay within 211 to 214 °C.
